Measurements taken from US20210352863A1, “METHOD FOR CONTROLLING WEED BEETS AND OTHER WEEDS” (KWS SAAT SE & Co. KGaA, priority 2018, published 2021).

What was measured:
[1] = acid form, at 25° C.; cited from earlier work
[2] = test system: sugar beet elite line T807 (mutagenized, M2 plants); assay: glyphosate treatment of surviving M2 plants of mutagenized sugar beet (screening and selection for resistance); assay type: in vivo, Beta vulgaris (sugar beet); settings: 600 g/ha glyphosate acid equivalent
From the text: 6 kg seeds of sugar beet elite line T807 (3BT1760, M0 population) were mutagenized with 0.5% EMS and 0.3% and 0.5%, respectively ENU, and subsequently drilled for steck production. Stecks were replanted for seed production occupying an area of 5.8 ha. M1 population sizes were 75,000 seed producing plants for EMS and 19,000 plants for ENU mutagenized seeds. The following M2 seed amounts (values given for purified seed) has been obtained: 240 kg for 0.5% EMS (idents A and B), 548 kg for 0.3% ENU (idents C and D), and 256 kg 0.5% ENU (idents E and F).
176 kg of idents A and B and 75 kg of idents C, D, E and F were sown on an approximately 15 ha spanning field site. Approximately 1 month after sowing, the entire field was sprayed with 0.88 I/ha ROUNDUP® MAX (680 g/kg glyphosate acid equivalent). Approximately 6 weeks later, plants surviving the glyphosate treatment were collected in the field, transplanted to pots and further cultivated in the greenhouses. Surviving plants were treated with 600 g/ha glyphosate acid equivalent about 2 months later.
In order to identify the causative mutation behind the observed herbicide resistance sequencing analyses have been performed. Inter alia, the exon 2 of the epsp synthase gene in sugar beet was PCR amplified (primers BvEPSPS_Ex_2_for, 5′-[…]-3′ (SEQ ID NO: 13), and BvEPSPS_Ex_2_rev, 5′-[…]-3′ (SEQ ID NO: 14)) and Sanger sequenced (primers BvEPSPS_Ex2_Seqf, 5′-[…]-3′ (SEQ ID NO: 15), and BvEPSPS_Ex2_Seqr, 5′-[…]-3′ (SEQ ID NO: 16)) in all 172 surviving plants. The sugar beet plant with identifier 6MS1008-109 carried a C to T mutation that causes the P179S amino acid change in BvEPSPS. This artificial SNP has been independently confirmed by KASP marker assay using an in silico developed KASP-marker s1txepss02 (SEQ ID NOs: 17-19): […]

For `O=C(O)CNCP(=O)(O)O` [glyphosate, N-phosphonomethylglycine], the solubility in water [1] is given as 1.16 % by weight, the “resistance conferred by heterozygous P179S mutation in BvEPSPS” value ([2]; approx. 50% of standard field treatment level, strong indication from screening and selection) is given as “complete resistance” and the “plants that survived the treatment” value ([2]; potted greenhouse plants that had survived the field spray with ROUNDUP MAX) is given as 172 plants. The “herbicide damage on surviving plants” value ([2]; the 172 surviving plants in the greenhouse) was “without any signs of herbicide damage”.
